Reference: paper PMC7747594, “Protease-activated receptor-2 ligands reveal orthosteric and allosteric mechanisms of receptor inhibition” (Communications Biology, 2020)
Where “and” joins values, the source holds several entries; their conditions need not be identical. Equal values may be shown once. Each block holds one molecule with its values, some of them ahead of it. Ends that are not written are not given here. Peptide text beside a SMILES is read from it.

How the values were obtained:
[1] = target: human PAR2 on Flp-In CHO-hPAR2 cells (human) (UniProt P55085); test: time-resolved fluorescence competition binding on cells (Eu-tagged ligand, DELFIA); CHO-hPAR2 cells in 384-well plates, blocked with 2% BSA; Eu-tagged-2f-LIGRLO(dtpa)-NH2 300 nM together with competitor for 15 min; washed; DELFIA Enhancement Solution
[2] = target: T1, beta-tryptase (uniprot P20231) (Homo sapiens, UniProt P20231); test: Tryptase enzyme activity assay; assay type: biochemical; details: 10 µM, n=1
T1 construct: made in house; host or cells: Pichia pastoris
T1 sequence (P20231 31-275): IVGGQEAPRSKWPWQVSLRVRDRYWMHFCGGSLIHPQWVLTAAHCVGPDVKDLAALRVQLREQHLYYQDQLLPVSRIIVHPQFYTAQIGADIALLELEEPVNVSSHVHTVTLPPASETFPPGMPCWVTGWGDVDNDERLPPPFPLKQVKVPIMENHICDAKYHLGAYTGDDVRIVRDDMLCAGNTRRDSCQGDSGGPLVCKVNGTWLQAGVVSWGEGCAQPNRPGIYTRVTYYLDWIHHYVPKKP
Protocol: Tryptase Enzyme Activity Assay. The tryptase assay was carried out using beta-tryptase (uniprot P20231) produced in Pichia pastoris and using Tos-Gly-Pro-Lys-pNA as substrate (25 mM stock in ethanol) in 100 mM Tris pH 8.0, 100 mM NaCl, 10% glycerol, 0.5 mg mL-1 BSA, 0.1% DDM. Substrate (250 µM) was pre-incubated with test compound (10 µM) in assay buffer (200 ul) in clear bottom 96 well Greiner plates at room temperature. The re action was started by the addition of tryptase to a final concentration of 4.7 nM. Co nversion was recorded in a plate reader by monitoring the increase of absorption at λ = 405 nm over time. Activity was determined by linear fit of initial rate.

hPAR2 [3] = target: T2, hPAR2 (Homo sapiens, UniProt P55085); test: Ca^2+ flux assay, agonist mode, 1321N1-hPAR2 cells; assay type: cell-based; details: for Ca2+ response (Fig 2c), individual replicate values: hPAR2
T2 sequence (P55085 26-397): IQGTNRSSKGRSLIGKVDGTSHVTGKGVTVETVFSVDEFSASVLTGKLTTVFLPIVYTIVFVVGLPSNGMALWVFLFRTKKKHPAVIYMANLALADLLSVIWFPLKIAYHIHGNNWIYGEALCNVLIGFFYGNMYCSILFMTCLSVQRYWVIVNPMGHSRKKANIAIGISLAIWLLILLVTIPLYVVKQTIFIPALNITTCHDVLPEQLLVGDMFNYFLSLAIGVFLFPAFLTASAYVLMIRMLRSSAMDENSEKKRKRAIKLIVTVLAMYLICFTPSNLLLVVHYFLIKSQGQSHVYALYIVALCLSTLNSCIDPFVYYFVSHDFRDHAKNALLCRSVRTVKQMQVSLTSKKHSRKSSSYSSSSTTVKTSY
Protocol: Cells were loaded with Fluo-8 NW calcium dye (AAT Bioquest) for 30 min at 37 °C before compounds in Hank’s balanced salt solution (HBSS, ThermoFisher Scientific) with 20 mM HEPES (ThermoFisher Scientific), 0.1% bovine serum albumin (BSA, Sigma) and 0.5% DMSO were added and simultaneously evaluated for changes in intracellular [Ca^2+] using FLIPR TETRA (Molecular Devices) to detect agonism. For each concentration, the difference between the maximum peak Ca^2+ response and baseline response is reported. […] Antagonism experiments were also carried out on 1321N1-PAR2[WT], 1321N1-PAR2[F154A], and 1321N1-PAR2[G157C] as described. Experiments with trypsin in 1321N1-hPAR2 cells were performed in the presence of 1 µM Vorapaxar (Chemtronica) to remove any interference of PAR1 activity. […] Antagonism experiments for CHO-hPAR2 and HT-29 cells were performed in 96-well plates at 30,000 cells/well. Cells were loaded with Fluo-3 AM calcium dye (Sigma-Aldrich) for 60 min at 37 °C in HBSS with 1% FBS, 0.2% pluronic acid, 20 mM HEPES and 2.5 mM probenecid prior to the addition of antagonist. The antagonist was pre-incubated for 60 min at 37 °C followed by the addition of bovine trypsin (30 nM) at EC80. Intracellular [Ca^2+] flux was measured using FLIPR TETRA (Molecular Devices) and the difference between the maximum peak Ca^2+ response and baseline response is reported.
Binding data were analysed using the One site – Fit Ki model in GraphPad Prism 8 (GraphPad Software) to determine binding affinity. Pharmacology in vitro potency data was analysed with a 4-parameter logistic fit using the equation y = Bottom + (Top − Bottom)/[…] where y is the response, x is the 10-logarithm of the drug concentration, Bottom is no response and Top is full response in GraphPad Prism 8 or Genedata Screener (Genedata). pEC50 and pIC50 data are presented as mean ± standard error of the mean (s.e.m.) derived from the number of independent experiments stated. Schild slope analysis was calculated using Graphpad Prism 8 Gaddum/Schild EC50 global fitting (shared model parameters between all data sets) competitive model. […] Schild slope quantifies the shifts in agonist response in the presence of antagonist, a Schild slope of 1 indicates the antagonist is competitive and extra-sum-of-squares F-test (p < 0.05) was used to compare the calculated Schild slope against a hypothetical Schild slope of 1. […] The relative activity was calculated using (EmaxEC50’)/(Emax’EC50) with the Hill slope help constant at 1. EC50’ and Emax’ denote the EC50 and Emax in the absence of allosteric modulator, while EC50 and Emax denote those measured in the presence of allosteric modulator. When the Hill slope = 1, the relative activity plot approaches an asymptote corresponding to the estimate of the γ value.

hPAR2 [4] = target: T2, hPAR2; test: IP1 assay, agonist mode, 1321N1-hPAR2 cells; assay type: cell-based
hPAR2 [5] = target: T2, hPAR2; test: β-arrestin-2 recruitment, agonist mode, U2OS-hPAR2 cells; assay type: cell-based
hPAR2 [6] = target: T2, hPAR2; test: pERK1/2 assay, agonist mode, U2OS-hPAR2 cells; assay type: cell-based
hPAR2 [7] = target: T2, hPAR2; test: Radiolabelled competition binding assay against [^3H]-GB110 on HEKexpi293F membranes; set-up: expressed in transfected cells
Protocol: The reaction was then filtered through 0.5% PEI-coated filter plates using a BiomekFX. The filter plate was then dried for 1 h at 50 °C. Scintillation fluid was added to each well, before reading the plate in a Microbeta reader.
Binding data were analysed using the One site – Fit Ki model in GraphPad Prism 8 (GraphPad Software) to determine binding affinity. Pharmacology in vitro potency data was analysed with a 4-parameter logistic fit using the equation y = Bottom + (Top − Bottom)/[…] where y is the response, x is the 10-logarithm of the drug concentration, Bottom is no response and Top is full response in GraphPad Prism 8 or Genedata Screener (Genedata). pEC50 and pIC50 data are presented as mean ± standard error of the mean (s.e.m.) derived from the number of independent experiments stated. Schild slope analysis was calculated using Graphpad Prism 8 Gaddum/Schild EC50 global fitting (shared model parameters between all data sets) competitive model. The most rigorous method for quantifying agonist-antagonist interactions is to globally fit the Gaddum/Shild model to all agonist dose–response curves. Schild slope quantifies the shifts in agonist response in the presence of antagonist, a Schild slope of 1 indicates the antagonist is competitive and extra-sum-of-squares F-test (p < 0.05) was used to compare the calculated Schild slope against a hypothetical Schild slope of 1. […] The relative activity was calculated using (EmaxEC50’)/(Emax’EC50) with the Hill slope help constant at 1. EC50’ and Emax’ denote the EC50 and Emax in the absence of allosteric modulator, while EC50 and Emax denote those measured in the presence of allosteric modulator. When the Hill slope = 1, the relative activity plot approaches an asymptote corresponding to the estimate of the γ value.

[8] = target: human protease-activated receptor-2 (PAR2) in membranes of HEKexpi293F cells (human, UniProt P55085 26-397); test: radioligand binding; competition against [3H]-GB110 (25 nM) on membranes (30 µg protein per well) of HEKexpi293F cells expressing human PAR2; 2 h at room temperature; filtration; One site - Fit Ki model; details: one partner purified

pKA (equilibrium dissociation constant of the orthosteric ligand) [1]: 6.1 pKA
Molecule: 2f-LIGRLO-NH2 (peptide)

inhibition of tryptase activity [2]: completely
Molecule: N=C(N)Nc1ccc(C(=O)Oc2ccc([N+](=O)[O-])cc2)cc1 [4-nitrophenyl-4-guanidinobenzoate, reference compound]

Molecule: CC[C@H](C)[C@H](NC(=O)[C@H](CC(C)C)NC(=O)[C@@H](N)CO)C(=O)NCC(=O)N[C@@H](CCCCN)C(=O)N[C@H](C(N)=O)C(C)C [SLIGKV-NH2, reference compound] (H-SLIGKV-NH2)
EC50 (hPAR2 [3]): 1.26 µM | Ca2+ response (Fig 2c), individual replicate values (hPAR2 [3]; [compound],M -3.69897): 103.767 and 118.778 and 97.8658 and 87.8393 | Ca2+ response (Fig 2c), individual replicate values (hPAR2 [3]; [compound],M -4.17609): 56.3274 and 105.715 and 98.496 and 100.501 | Ca2+ response (Fig 2c), individual replicate values (hPAR2 [3]; [compound],M -4.65321): 93.626 and 84.0006 and 100.043 and 97.9804 | Ca2+ response (Fig 2c), individual replicate values (hPAR2 [3]; [compound],M -5.13033): 68.0728 and 71.1667 and 73.1719 and 72.2553 | Ca2+ response (Fig 2c), individual replicate values (hPAR2 [3]; [compound],M -5.60746): 41.6601 and 53.119 and 63.0309 and 60.338 | Ca2+ response (Fig 2c), individual replicate values (hPAR2 [3]; [compound],M -6.08458): 28.1959 and 44.9832 and 36.0453 and 35.9307 | Ca2+ response (Fig 2c), individual replicate values (hPAR2 [3]; [compound],M -6.5617): 11.2941 and 18.1695 and 18.1121 and 22.4665 | Ca2+ response (Fig 2c), individual replicate values (hPAR2 [3]; [compound],M -7.03882): 4.705 and 12.8411 and -0.8522 and 3.559 | Ca2+ response (Fig 2c), individual replicate values (hPAR2 [3]; [compound],M -7.51594): -1.139 and 5.679 and 1.6687 and -1.54 | Ca2+ response (Fig 2c), individual replicate values (hPAR2 [3]; [compound],M -7.99306): -2.17 and 3.044 and 0.4082 and -4.863 | EC50 (hPAR2 [4]): 25.1 µM | EC50 (hPAR2 [5]): 12.6 µM | agonist response (Fig 2f), individual replicate values (hPAR2 [5]; [compound],M -4.04576): 97.3808 and 92.2809 and 86.7862 and 73.31 and 95.9148 and 84.3134 | agonist response (Fig 2f), individual replicate values (hPAR2 [5]; [compound],M -4.52288): 92.9579 and 90.0884 and 64.3276 and 56.5062 and 77.8703 and 74.4284 | agonist response (Fig 2f), individual replicate values (hPAR2 [5]; [compound],M -5): 55.0604 and 54.5545 and 55.8646 and 38.6159 and 58.5041 and 56.712 | agonist response (Fig 2f), individual replicate values (hPAR2 [5]; [compound],M -5.47712): 26.8191 and 21.9568 and 32.045 and 20.5609 and 38.941 and 38.2123 | agonist response (Fig 2f), individual replicate values (hPAR2 [5]; [compound],M -5.95424): 3.59 and 16.887 and 24.5009 and 9.51 and 14.8748 and 18.3177 | agonist response (Fig 2f), individual replicate values (hPAR2 [5]; [compound],M -6.43136): -3.351 and 12.8282 and 7.2581 and 5.779 and 4.6 and 10.8974 | agonist response (Fig 2f), individual replicate values (hPAR2 [5]; [compound],M -6.90849): 4.102 and 7.728 and 1.445 and -0.0221 and 3.388 and 8.399 | agonist response (Fig 2f), individual replicate values (hPAR2 [5]; [compound],M -7.38561): 1.29 and 11.1269 and 3.313 and 3.3558 and 1.549 and 0.5881 | agonist response (Fig 2f), individual replicate values (hPAR2 [5]; [compound],M -7.86273): -1.101 and 4.782 and 4.705 and 0.01875 and -2.103 and 4.2334 | agonist response (Fig 2f), individual replicate values (hPAR2 [5]; [compound],M -8.33985): -5.551 and 2.218 and -0.6869 and -0.9848 and 0.2659 and 2.337 | EC50 (hPAR2 [6]): 10 µM | agonist response (Fig 2e), individual replicate values (hPAR2 [6]; [compound],M -4.04576): 99.6308 and 91.4672 and 59.9255 and 93.3534 and 82.1422 and 106.727 and 95.3302 and 107.361 | agonist response (Fig 2e), individual replicate values (hPAR2 [6]; [compound],M -4.52288): 97.6379 and 75.0545 and 42.279 and 78.3436 and 72.4641 and 77.8082 and 83.5277 and 91.4836 | agonist response (Fig 2e), individual replicate values (hPAR2 [6]; [compound],M -5): 31.7126 and 38.7964 and 29.9003 and 52.5593 and 35.7079 and 56.5471 and 40.6895 and 78.4826 | agonist response (Fig 2e), individual replicate values (hPAR2 [6]; [compound],M -5.47712): -6.206 and 24.6437 and 9.489 and 50.4555 and 3.733 and 21.3761 and 7.93 and 32.2657 | agonist response (Fig 2e), individual replicate values (hPAR2 [6]; [compound],M -5.95424): -12.6824 and 18.9444 and 7.502 and 22.8061 and -1.381 and 9.052 and -3.256 and 12.5644 | agonist response (Fig 2e), individual replicate values (hPAR2 [6]; [compound],M -6.43136): -23.75 and 16.3682 and -5.093 and 16.2671 and -4.436 and 12.7209 and -3.872 and 14.813 | agonist response (Fig 2e), individual replicate values (hPAR2 [6]; [compound],M -6.90849): 15.5205 and 19.768 and 3.339 and 15.6565 and 2.966 and 12.1455 and -0.4138 and 11.0577 | agonist response (Fig 2e), individual replicate values (hPAR2 [6]; [compound],M -7.38561): -7.931 and 10.0627 and -5.815 and 6.181 and -11.0844 and 9.039 and -0.4366 and 14.6989 | agonist response (Fig 2e), individual replicate values (hPAR2 [6]; [compound],M -7.86273): -16.2411 and 11.2751 and -1.735 and 6.359 and -8.732 and 10.0488 and 1.766 and 13.489 | agonist response (Fig 2e), individual replicate values (hPAR2 [6]; [compound],M -8.33985): -5.583 and 13.904 and -4.7322 and 9.728 and -8.195 and 13.5647 and -0.3681 and 7.371 | Ki (hPAR2 [7]): 0.468 µM | remaining binding at […] (hPAR2 [7]; 2 h, read-out: specific binding of [^3H]-GB110, Fig 2b source data): 100% and 94.6%

pKi [8]: 6.33 pKi
B1: SLIGKV-NH2 (peptide)
peptide: SLIGKV-NH2
notes: also called human tethered ligand peptide; source: synthetic peptide, custom synthesised by ThermoFisher Scientific
